We go through 2 molecules from ChEMBL document CHEMBL2401670, “Synthesis and biological evaluation of rhodanine derivatives bearing a quinoline moiety as potent antimicrobial agents” (Bioorg Med Chem Lett, 2013).

In brackets after ≈: the same amount, converted by molar mass. Where only a bound is given, the exact number is not on record here.

Assay [1] deals with Staphylococcus aureus. In words: Ratio of norfloxacin MIC to compound MIC for quinolone-resistant Staphylococcus aureus CCARM 3505. It is filed as functional.
For assay [2], the system named is Staphylococcus aureus. In words: Ratio of moxifloxacin MIC to compound MIC for quinolone-resistant Staphylococcus aureus CCARM 3505. It is filed as functional.
The subject of assay [3] is Staphylococcus aureus. In words: Antibacterial activity against quinolone-resistant Staphylococcus aureus CCARM 3519 after 24 hrs by broth microdilution method. The format is functional. To be noted: CCARM 3519, 24 h. For orientation: Broth dilution looks for growth in wells or tubes with falling amounts of substance.
The next assay relates to Escherichia coli. Briefly: Antibacterial activity against Escherichia coli CCARM 1356 after 24 hrs by broth microdilution method. To be noted: CCARM 1356, 24 h. It is filed as functional.
Assay [4] deals with Staphylococcus aureus. In words: Ratio of norfloxacin MIC to compound MIC for quinolone-resistant Staphylococcus aureus CCARM 3519. The format is functional.
In assay [5] the test system is Staphylococcus aureus. Briefly: Ratio of norfloxacin MIC to compound MIC for methicillin-resistant Staphylococcus aureus CCARM 3506. The format is functional.
Another assay has as its system HeLa. In words: Cytotoxicity against human HeLa cells after 48 hrs by MTT assay. The format is cell-based. (In general: Tetrazolium assays rely on reduction of a dye to a coloured formazan, in cell work by metabolically active cells.)
In assay [6] the test system is Staphylococcus aureus. In words: Antibacterial activity against methicillin-resistant Staphylococcus aureus CCARM 3506 after 24 hrs by broth microdilution method. To be noted: CCARM 3506, 24 h. It is filed as functional.
The test system of assay [7] is Staphylococcus aureus. In words: Ratio of norfloxacin MIC to compound MIC for methicillin-resistant Staphylococcus aureus CCARM 3167. It is filed as functional.
The test system of assay [8] is Staphylococcus aureus. Briefly: Antibacterial activity against Staphylococcus aureus KCTC 209 after 24 hrs by broth microdilution method. The format is functional. To be noted: KCTC 209, 24 h.
Assay [9] relates to Staphylococcus aureus. In words: Ratio of gatifloxacin MIC to compound MIC for quinolone-resistant Staphylococcus aureus CCARM 3505. The format is functional.
In assay [10] the test system is Staphylococcus aureus. Briefly: Antibacterial activity against quinolone-resistant Staphylococcus aureus CCARM 3505 after 24 hrs by broth microdilution method. To be noted: CCARM 3505, 24 h. It is filed as functional.
Assay [11] has as its system Staphylococcus aureus. In words: Ratio of moxifloxacin MIC to compound MIC for quinolone-resistant Staphylococcus aureus CCARM 3519. It is filed as functional.
In assay [12] the test system is Staphylococcus aureus. In words: Antibacterial activity against Staphylococcus aureus KCTC 503 after 24 hrs by broth microdilution method. To be noted: KCTC 503, 24 h. The format is functional.
For assay [13], the system named is Staphylococcus aureus. Briefly: Ratio of gatifloxacin MIC to compound MIC for quinolone-resistant Staphylococcus aureus CCARM 3519. It is filed as functional.
In assay [14] the test system is Staphylococcus aureus. Briefly: Antibacterial activity against Staphylococcus aureus RN4220 after 24 hrs by broth microdilution method. To be noted: RN4220, 24 h. The format is functional.
The subject of assay [15] is Staphylococcus aureus. Briefly: Antibacterial activity against methicillin-resistant Staphylococcus aureus CCARM 3167 after 24 hrs by broth microdilution method. To be noted: CCARM 3167, 24 h. It is filed as functional.

On to `Cc1ccc(COc2ccc3nc(Cl)c(/C=C4\SC(=S)N([C@@H](Cc5ccccc5)C(=O)O)C4=O)cc3c2)cc1`, for which the Ratio with Staphylococcus aureus [1], with Staphylococcus aureus [2], with Staphylococcus aureus [4], in the assay with Staphylococcus aureus [5], in the assay with Staphylococcus aureus [7] and in the assay with Staphylococcus aureus [9] was 4 throughout. The Ratio in the assay on Staphylococcus aureus [11] and in the assay on Staphylococcus aureus [13] was 4 throughout. Besides, the minimum inhibitory concentration (MIC) was 1 µg/mL (≈ 1.74 µM) against Staphylococcus aureus [3]; above 64 µg/mL against Escherichia coli; 1 µg/mL (≈ 1.74 µM) in the assay on Staphylococcus aureus [6]; 8 µg/mL (≈ 13.9 µM) in the assay with Staphylococcus aureus [8]; 1 µg/mL (≈ 1.74 µM) with Staphylococcus aureus [10]; 8 µg/mL (≈ 13.9 µM) with Staphylococcus aureus [12]. Moreover, the minimum inhibitory concentration (MIC) with Staphylococcus aureus [14] was 2 µg/mL (≈ 3.48 µM); against Staphylococcus aureus [15], 1 µg/mL (≈ 1.74 µM). Besides, half-maximal inhibition in the assay on HeLa (IC50) was put at 13.3 µg/mL (≈ 23.1 µM).

On to `CC(C)C[C@@H](C(=O)O)N1C(=O)/C(=C/c2cc3cc(OCc4ccc(Cl)cc4)ccc3nc2Cl)SC1=S`, for which the Ratio in the assay with Staphylococcus aureus [1], with Staphylococcus aureus [2], in the assay on Staphylococcus aureus [4], in the assay with Staphylococcus aureus [5], with Staphylococcus aureus [7] and in the assay with Staphylococcus aureus [9] was 4 in each case. Besides, the Ratio in the assay with Staphylococcus aureus [11] and in the assay on Staphylococcus aureus [13] was 4 throughout. The MIC with Staphylococcus aureus [3] is 1 µg/mL (≈ 1.78 µM); with Escherichia coli it was above 64 µg/mL; in the assay with Staphylococcus aureus [6], 1 µg/mL (≈ 1.78 µM); in the assay with Staphylococcus aureus [8], 4 µg/mL (≈ 7.12 µM); against Staphylococcus aureus [10], 1 µg/mL (≈ 1.78 µM); in the assay on Staphylococcus aureus [12], 4 µg/mL (≈ 7.12 µM). Moreover, the minimal inhibitory concentration (MIC) against Staphylococcus aureus [14] and with Staphylococcus aureus [15] was 1 µg/mL (≈ 1.78 µM) in each case.

In general, MIC refers to the smallest concentration in the dilution series that meets the test's criterion for growth inhibition. A lower MIC goes with greater potency. By IC50 is commonly meant the midpoint of a concentration-inhibition curve. A higher IC50 goes with weaker potency.
